Where a name gives a salt, the structure may show the parent alone. Calls of active or inactive are those of the source.
How the values were obtained:
Aminopeptidase N = target: T1, Aminopeptidase N (Plasmodium falciparum FcB1/Columbia, UniProt O96935); test: P. falciparum M1AAP inhibitors, biochemical, fluorogenic H-Leu-NHMec substrate, 1536-well (AID 1445); parameters: species or system Plasmodium falciparum 3D7, 3D7
T1 sequence (O96935 whole entry): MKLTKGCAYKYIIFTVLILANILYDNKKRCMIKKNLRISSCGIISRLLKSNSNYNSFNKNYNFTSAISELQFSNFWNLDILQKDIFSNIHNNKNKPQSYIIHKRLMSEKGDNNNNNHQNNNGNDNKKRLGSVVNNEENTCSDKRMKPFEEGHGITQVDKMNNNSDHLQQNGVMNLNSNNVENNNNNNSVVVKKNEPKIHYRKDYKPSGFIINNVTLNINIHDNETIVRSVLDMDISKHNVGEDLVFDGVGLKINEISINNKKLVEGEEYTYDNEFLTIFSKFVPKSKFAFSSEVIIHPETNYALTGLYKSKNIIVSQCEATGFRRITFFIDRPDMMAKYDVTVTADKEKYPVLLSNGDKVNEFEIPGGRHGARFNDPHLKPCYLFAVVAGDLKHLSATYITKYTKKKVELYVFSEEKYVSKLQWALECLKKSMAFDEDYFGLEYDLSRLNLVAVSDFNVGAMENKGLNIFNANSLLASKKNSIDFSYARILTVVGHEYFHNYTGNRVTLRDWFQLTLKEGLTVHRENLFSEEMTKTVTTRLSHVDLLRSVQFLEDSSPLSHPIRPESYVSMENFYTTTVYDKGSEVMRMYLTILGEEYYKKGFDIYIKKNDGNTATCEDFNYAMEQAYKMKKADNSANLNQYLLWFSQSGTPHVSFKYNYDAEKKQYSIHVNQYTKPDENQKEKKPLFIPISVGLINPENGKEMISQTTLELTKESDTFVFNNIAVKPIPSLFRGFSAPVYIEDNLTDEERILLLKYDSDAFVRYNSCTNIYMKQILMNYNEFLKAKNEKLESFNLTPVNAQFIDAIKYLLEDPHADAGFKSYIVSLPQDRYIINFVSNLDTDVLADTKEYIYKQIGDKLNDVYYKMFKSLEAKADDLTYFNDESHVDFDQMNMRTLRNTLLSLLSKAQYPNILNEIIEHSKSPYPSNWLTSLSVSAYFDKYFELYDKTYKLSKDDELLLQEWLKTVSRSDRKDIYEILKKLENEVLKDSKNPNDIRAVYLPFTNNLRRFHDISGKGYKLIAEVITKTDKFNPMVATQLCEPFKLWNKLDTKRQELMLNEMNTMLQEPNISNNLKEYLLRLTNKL

Prothrombin = Prothrombin (Homo sapiens, UniProt P00734); test: Thrombin 1536 HTS Dose Response Confirmation. [Related pubchem assays: 1046 (Thrombin 1536 HTS; hits were confirmed in this assay)]; assay type: functional
Estrogen receptor = target: T2, Estrogen receptor (Homo sapiens, UniProt P03372);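 also: potency for inhibiting coactivator peptide recruitment to the receptor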
T2 sequence (P03372 whole entry): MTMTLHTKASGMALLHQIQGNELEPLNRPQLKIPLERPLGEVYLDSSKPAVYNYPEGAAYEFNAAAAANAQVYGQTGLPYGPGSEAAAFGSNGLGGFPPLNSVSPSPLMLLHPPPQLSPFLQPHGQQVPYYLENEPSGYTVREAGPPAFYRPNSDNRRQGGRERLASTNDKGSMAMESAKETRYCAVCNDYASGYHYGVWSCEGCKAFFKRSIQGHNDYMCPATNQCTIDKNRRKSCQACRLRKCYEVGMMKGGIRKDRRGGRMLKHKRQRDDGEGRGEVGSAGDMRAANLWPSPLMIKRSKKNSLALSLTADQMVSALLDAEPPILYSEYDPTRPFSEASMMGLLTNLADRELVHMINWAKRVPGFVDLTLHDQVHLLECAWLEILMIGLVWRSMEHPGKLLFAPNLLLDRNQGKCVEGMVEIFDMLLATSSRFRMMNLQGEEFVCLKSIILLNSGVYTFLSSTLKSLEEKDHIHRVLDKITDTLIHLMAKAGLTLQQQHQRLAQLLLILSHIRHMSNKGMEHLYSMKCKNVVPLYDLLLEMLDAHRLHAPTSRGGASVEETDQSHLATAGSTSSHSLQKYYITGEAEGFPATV

[1] = system: Streptococcus sp. 'group A'; test: growth inhibition of control SK(-) GAS strain, dose response, counter-screen for streptokinase expression inhibitor project, luminescence, kanamycin, BacTiterGlo, confirmation (AID 1900); assay type: functional, organism-based
Streptokinase A = target: T3, Streptokinase A (Streptococcus pyogenes serotype M1, UniProt P10520); test: S. pyogenes streptokinase expression inhibitors, potency, dose response, plasminogen activation absorbance, OD405 (AID 1914); assay type: functional, Streptococcus pyogenes M1 GAS;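 also: secreted streptokinase activity via plasminogen activation per viability signal from cell pellet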
T3 sequence (P10520 whole entry): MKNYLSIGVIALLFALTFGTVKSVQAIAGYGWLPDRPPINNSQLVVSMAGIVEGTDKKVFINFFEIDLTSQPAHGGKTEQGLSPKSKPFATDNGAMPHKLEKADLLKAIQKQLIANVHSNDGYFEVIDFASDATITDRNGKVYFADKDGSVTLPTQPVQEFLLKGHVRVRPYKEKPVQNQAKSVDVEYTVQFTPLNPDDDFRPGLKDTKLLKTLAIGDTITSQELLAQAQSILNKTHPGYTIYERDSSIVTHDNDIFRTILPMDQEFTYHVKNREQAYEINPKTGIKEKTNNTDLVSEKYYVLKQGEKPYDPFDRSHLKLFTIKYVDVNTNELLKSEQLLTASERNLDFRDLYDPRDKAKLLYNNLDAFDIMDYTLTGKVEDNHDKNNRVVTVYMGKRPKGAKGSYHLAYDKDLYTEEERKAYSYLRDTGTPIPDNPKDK

Streptococcus = test: Group A Streptococcus viability loss, dose response, counter-screen for streptokinase expression inhibitor project, luminescence, BacTiterGlo (AID 1915); assay type: functional, organism-based;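 also: potency for reduction of bacterial viability or growth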
[2] = THP-1 cell cytotoxicity, dose response, cytotoxicity control for non-replicating M. tuberculosis project (AID 489025); assay type: functional
[3] = HepG2 cell cytotoxicity, dose response, cytotoxicity control for non-replicating M. tuberculosis project (AID 489018); assay type: functional; details: Mycobacterium tuberculosis
[4] = Vero E6 cell cytotoxicity, dose response, cytotoxicity control for non-replicating M. tuberculosis project, secondary assay (AID 492998); assay type: functional, VeroE6; details: Vero C1008
[5] = Concentration-dependent survival of SW480 colon cancer line, luminescence detection with CellTiter-Glo, half-maximal inhibitory concentration (AID 1117338); assay type: functional
[6] = RKO cell viability reduction, dose response, CellTiter-Glo luminescence (AID 1117322); assay type: functional
[7] = cytotoxicity toward HCT116 cells – cell-based, CellTiter-Glo luminescence, IC50, dose response (AID 1117332); assay type: functional; details: HCT-116
[8] = SNU-C1 cell viability reduction, dose response, CellTiter-Glo luminescence (AID 1117323); assay type: functional, cell-based
[9] = cytotoxicity toward Colo320 cells – cell-based, CellTiter-Glo luminescence, IC50, dose response (AID 1117334); assay type: functional; details: COLO 320
[10] = cytotoxicity toward HT-29 cells – cell-based, CellTiter-Glo luminescence, IC50, dose response (AID 1117330); assay type: functional
[11] = CellTiter-Glo luminescent dose response of DLD-1 viability loss (AID 1117352); assay type: functional
[12] = HCT116 cell viability decrease, GSK3B pretreatment – CellTiter-Glo, IC50, dose response (AID 1117339); assay type: functional; details: HCT-116
Cytochrome P450 2D6 = Cytochrome P450 2D6 (Homo sapiens, UniProt P10635);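 also: CYP2D6 member of a cytochrome P450 panel assay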
Chain of Cytochrome P450 2D6 (P10635 whole entry): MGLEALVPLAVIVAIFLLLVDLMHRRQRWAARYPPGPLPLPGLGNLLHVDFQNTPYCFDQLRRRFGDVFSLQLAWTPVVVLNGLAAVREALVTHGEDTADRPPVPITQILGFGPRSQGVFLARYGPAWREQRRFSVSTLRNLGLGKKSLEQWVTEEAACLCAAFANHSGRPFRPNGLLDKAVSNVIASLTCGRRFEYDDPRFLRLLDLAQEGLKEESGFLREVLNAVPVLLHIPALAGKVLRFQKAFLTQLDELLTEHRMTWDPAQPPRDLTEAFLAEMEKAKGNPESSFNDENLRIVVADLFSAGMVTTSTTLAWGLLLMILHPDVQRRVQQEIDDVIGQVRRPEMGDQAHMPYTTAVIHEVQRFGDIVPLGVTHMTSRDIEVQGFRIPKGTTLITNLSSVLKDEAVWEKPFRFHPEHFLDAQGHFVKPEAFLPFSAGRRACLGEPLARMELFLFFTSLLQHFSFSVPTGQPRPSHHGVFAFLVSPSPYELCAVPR

Cytochrome P450 1A2 = target: T4, Cytochrome P450 1A2 (Homo sapiens, UniProt P05177);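 also: PubChem cytochrome P450 panel assay, CYP1A2 panel member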
T4 sequence (P05177 whole entry): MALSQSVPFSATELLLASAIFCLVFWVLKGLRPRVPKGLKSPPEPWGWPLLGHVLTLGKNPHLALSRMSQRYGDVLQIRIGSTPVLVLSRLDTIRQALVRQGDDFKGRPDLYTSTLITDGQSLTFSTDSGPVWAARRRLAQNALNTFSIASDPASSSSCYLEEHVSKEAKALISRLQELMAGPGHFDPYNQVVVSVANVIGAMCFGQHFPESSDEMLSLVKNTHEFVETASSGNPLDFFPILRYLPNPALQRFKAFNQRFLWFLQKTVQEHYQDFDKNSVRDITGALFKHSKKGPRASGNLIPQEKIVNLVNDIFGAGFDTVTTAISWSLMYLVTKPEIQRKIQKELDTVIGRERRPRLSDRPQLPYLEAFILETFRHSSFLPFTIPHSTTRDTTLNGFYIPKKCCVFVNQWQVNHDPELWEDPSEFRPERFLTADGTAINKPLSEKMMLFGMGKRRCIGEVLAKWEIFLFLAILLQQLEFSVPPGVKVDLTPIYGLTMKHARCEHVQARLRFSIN

| Structure (SMILES) | IC50 [5] | IC50 [6] | IC50 [7] | IC50 [8] | IC50 [9] | IC50 [10] | IC50 [11] | IC50 [12] | other results |
| --- | --- | --- | --- | --- | --- | --- | --- | --- | --- |
| O=c1[nH]c(SCc2ccccc2Cl)nc2n[nH]cc12 |  |  |  |  |  |  |  |  | IC50 (Aminopeptidase N): 9.3 µM (active) |
| Nc1nc(-c2cccnc2)nn1C(=O)c1ccccc1Cl |  |  |  |  |  |  |  |  | IC50 (Prothrombin): 83.1 nM (active) |
| Cc1cccc(NC2=NC(=O)/C(=C3/C(=O)N(C)c4ccccc43)S2)c1C |  |  |  |  |  |  |  |  | IC50 (Estrogen receptor): 32.9 µM (not active) |
| C/C(=N\NC(=O)c1ccccc1O)C1C(=O)c2ccccc2C1=O |  |  |  |  |  |  |  |  | IC50 (Aminopeptidase N): 12.8 µM (active); EC50 [1]: 3.62 µM (active); EC50 (Streptokinase A): > 150 µM (not active); EC50 (Streptococcus): 41 µM (active); CC50 [2]: 10.5 µM (active); CC50 [3]: > 20 µM (active); CC50 [4]: 4.99 µM (active) |
| CN(C)[C@@H](CCOc1cccc2ccccc12)c1ccccc1 [DAPOXETINE] | > 20 µM (inactive) | 8.11 µM (inactive) | > 20 µM (inactive) | 12.8 µM (inactive) | > 20 µM (inactive) | > 20 µM (inactive) | > 20 µM (inactive) | 9.86 µM (inactive) |  |
| CC(=O)NC(=O)c1ccccc1O [SALACETAMIDE] | > 20 µM (inactive) | > 20 µM (inactive) | > 20 µM (inactive) | > 20 µM (inactive) | > 20 µM (inactive) | > 20 µM (inactive) | > 20 µM (inactive) | > 20 µM (inactive) |  |
| CN1CCN(CCCN2c3ccccc3Sc3ccc(S(=O)(=O)N(C)C)cc32)CC1 [THIOPROPERAZINE MESYLATE] | > 20 µM (inactive) | 5.99 µM (inactive) | > 20 µM (inactive) | 2.12 µM (active) | 8.17 µM (inactive) | > 20 µM (inactive) | 14.6 µM (inactive) | > 20 µM (inactive) | AC50 (Cytochrome P450 2D6): 6.31 µM (inconclusive); AC50 (Cytochrome P450 1A2): 12.6 µM (inconclusive) |
